Assay results as given in patent publication US20110065919A1, “5-Substituted Indol-3-Carboxylic Acid Derivatives Exhibiting Antiviral Activity a Method for the Production and Use Thereof” (priority 2007, published 2011).
Converted amounts (≈) assume the structure as drawn. Read-outs that look alike come from different tables or passages of the source.

What was measured:
[1] = tested on: influenza A/Aichi/2/69 (H3N3) virus; assay: Murine influenza pneumonia model; type: in vivo, mice; details: for Mortality reduction: versus infected control; for Survived: number of mice surviving, n=10, 60 mg/kg/day
Method: (§1) 2. Determination of the efficacy of the compounds in the murine influenza pneumonia model.
(§2) The mice were infected intranasally under light ether anesthesia with the influenza A/Aichi/2/69 ([…]) virus. […] The efficacy of the action of the compounds in the influenza pneumonia model were assessed according to the number of mice surviving after infection with the virus and the increase in mean life span
(§3) The mean life span of the mice was calculated according to the following formula: MSD [mean survival day]=Σ(f(d−1)[…], where f is the number of mice dying on day d; the surviving mice were also included in f, and d in this case was 15; n is the number of mice in the group.

[2] = tested on: influenza A/Aichi/2/69 virus; assay: Murine influenza pneumonia model; type: in vivo, mice; details: mean life span, 60 mg/kg/day, survivors counted with d=15
Method: as §1, §2, §3

[3] = tested on: MDCK tissue culture cells; assay: Cytotoxic action, maximal tolerated concentration in MDCK tissue culture cells
[4] = tested on: influenza A/New Caledonia/20/99 (H1N1) virus reference strain; assay: microbe, parasite or virus in culture; type: cell-based; details: for Activity at 10 μg/mL / specific activity in relation to influenza A virus reference strain (H1N1), in words / MIC50: MDCK cells; for MIC50: concentration inhibiting viral reproduction by 50%; for Chemotherapeutic Index: ratio of the MTC to the MIC50

| Molecule | Mortality ([1]; 60 mg/kg/day) [%] | chemotherapeutic action compared with arbidol, in words ([1]; 60 mg/kg/day) | Mortality reduction ([1]; 60 mg/kg/day) [%] | Survived [1] | Life Span [2] [days] | MTC of the Compounds [3] [µg/mL] | efficacy at 10 μg/mL compared with arbidol, in words [4] | Activity at 10 μg/mL [4] | specific activity in relation to influenza A virus reference strain (H1N1), in words [4] | MIC50 [4] [µg/mL] | Chemotherapeutic Index [4] | MIC50 ([4]; Influenza A virus, H1N1, read-out: MIC50) [µg/mL] |
| --- | --- | --- | --- | --- | --- | --- | --- | --- | --- | --- | --- | --- |
| 1-{6-Bromo-1-methyl-5-methoxy-2-(phenylthio)methyl-1-H-indol-3-yl}-benzylpiperazine | 20 | not inferior to arbidol | 61 | 8 | 13.1 | 40 | inferior to arbidol in efficacy | 64.4 | high specific activity | 5.8 | 6.9 | – |
| COc1cc2c(C(=O)N3CCCCC3)c(CSc3ccccc3)n(C)c2cc1Br [C] | – | – | – | – | – | 25 | – | 52.1 | low activity | 9.2 (≈ 19.4 µM) | 2.7 | – |
| CCOC(=O)c1c(CSc2ccccc2)n(C)c2cc(Br)c(O)c(CN(C)C)c12 [Arbidol, 1-methyl-2-phenylthiomethyl-3-carbethoxy-4-dimethylaminomethyl-5-hydroxy-6-bromindol, reference compound] | 20 | – | 61 | 8 | 12.2 | 40 | – | 100.0 | – | – | 6.7 | 6 (≈ 12.6 µM) |
| COc1cc2c(C(=O)N3CCCC3)c(CSc3ccccc3)n(C)c2cc1Br [B] | – | – | – | – | – | 15 | did not differ from it | 100.0 | high specific activity | 2.0 (≈ 4.35 µM) | 7.5 | – |
